# From patent US20210121833A1, “Producing Homogeneous Metastable Solutions from Heterogeneous Non-condensed Solutes And Liquid Solvents” (priority 2019, published 2021)
# What was measured:
# [1] = cited from earlier work
# wounds and lesions = assay: Baths with oxygen saturated metastable solution, preliminary animal studies; format: in vivo; conditions: at least 30 mg/l concentration of oxygen
compound,measurement,setting,value
O=O [oxygen],fully saturated DO level,[1]; STP,38 mg/L
same,solubility limit of oxygen,"[1]; atmospheric conditions, partial pressure in air of 0.21 atm",less than 10 mg/l
same,benefits of healing,wounds and lesions,Benefits of healing have been seen
